Laboratory results reported in publication PMC11523249, “Expanding the antiprotozoal activity and the mechanism of action of n-butyl and iso-butyl ester of quinoxaline-1,4-di-N-oxide derivatives against Giardia lamblia, Trichomonas vaginalis, and Entamoeba histolytica. An in vitro and in silico approach” (Journal of Enzyme Inhibition and Medicinal Chemistry, 2024).
Like-named read-outs stand apart in the source and are kept apart here.

How the values were obtained:
G. lamblia WB strain = experiment: In vitro susceptibility assay, G. lamblia trophozoites; assay type: cell-based, Giardia lamblia
Procedure: (§1) G. lamblia WB strain, T. vaginalis GT3 strain, and E. histolytica strain HM1-IMSS were used in all experiments, all parasitic strains were obtained from the Unidad de Investigación Médica en Enfermedades Infecciosas y Parasitarias, Hospital de Pediatría, Instituto Mexicano del Seguro Social. In vitro susceptibility assays to determine IC50 values were performed using a method previously described. For this, 4 × 10^4 G. lamblia; 6 × 10^3 E. histolytica, or 4 × 10^4 T. vaginalis trophozoites were incubated for 48 h at 37 °C with different concentrations of quinoxaline derivatives T-137 to T-170 (0.5 ng/mL to 10 μg/mL) using dimethyl sulfoxide (DMSO) (0.05%) as solvent. Metronidazole and albendazole were used as positive controls, and parasites in the medium without drugs containing DMSO (0.05%) were included as negative controls. At the end of the incubation period, trophozoites were washed and subcultured for another 48 h in a fresh medium without drugs. Then, trophozoites were counted with a haemocytometer and the IC50 was calculated by Probit analysis. Experiments were carried out in triplicate and repeated at least twice.

T. vaginalis GT3 strain = experiment: In vitro susceptibility assay, T. vaginalis trophozoites; assay type: cell-based, Trichomonas vaginalis
Procedure: as §1

[1] = tested on: E. histolytica strain HM1-IMSS; experiment: In vitro susceptibility assay, E. histolytica trophozoites; assay type: cell-based, Entamoeba histolytica
Procedure: as §1

[2] = biological target: T1, recombinant E. histolytica thioredoxin reductase (EhTRXR) (Entamoeba histolytica, UniProt C4LW95); experiment: Inhibition of EhTrxR DTNB reductase activity; assay type: biochemical; conditions: pH 7, read-out: EhTrxR inhibitory effect (disulphide reductase activity)
T1 construct: His-tag (pET28a) (N); made in house; host or cells: E. coli BL21 (DE3)
T1 sequence (C4LW95 1-314): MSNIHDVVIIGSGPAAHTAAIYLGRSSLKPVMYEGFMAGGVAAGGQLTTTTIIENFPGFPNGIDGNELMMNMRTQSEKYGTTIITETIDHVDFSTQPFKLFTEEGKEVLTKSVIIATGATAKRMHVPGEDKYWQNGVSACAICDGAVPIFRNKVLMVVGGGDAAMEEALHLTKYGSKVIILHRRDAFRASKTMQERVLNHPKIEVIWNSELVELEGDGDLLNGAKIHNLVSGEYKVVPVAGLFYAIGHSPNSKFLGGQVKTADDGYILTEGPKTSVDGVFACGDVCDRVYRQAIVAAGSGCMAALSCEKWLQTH
Procedure: Recombinant E. histolytica thioredoxin reductase (EhTRXR) was expressed in E. coli BL21 (DE3) as His-tag (N-terminal) recombinant proteins using pET28a vector, and it was purified using IMAC as previously described. 5,5′-Dithiobis(2-nitrobenzoic acid) (DTNB) reductase activity was measured by monitoring the production of thionitrobenzoate at 405 nm in a reaction mixture comprising 50 mM potassium phosphate, pH 7.0, 2 mM EDTA, 300 µM NADPH, 5 mM DTNB, and 0.1 µM EhTRXR. Activity was calculated using the molar extinction coefficient at 405 nm of 13.6 mM^−1cm^− 1 and considering that 1 mol of NADPH yields 2 mol of thionitrobenzoate. The enzyme assays were performed at 30 °C, in a final volume of 50 μL, and using a Multiskan Ascent one-channel vertical light path filter photometer (Thermo Electron Co.). All results represent the arithmetic mean of at three independent experiments.

[3] = tested on: murine macrophage cell line J774.2; experiment: Cytotoxic evaluation, MTT colorimetric assay; assay type: cell-based; conditions: murine macrophages J774.2, read-out: Cytotoxicity (Macrophages J774.2) (CC50)
Procedure: The murine macrophage cell line J774.2 was maintained in culture flasks with RPMI 1640 medium supplemented with 10% FBS, and 100 U/mL antibiotic-antifungal mixture (Gibco). Cells were incubated at 37 °C with 5% CO2 and humidity. Murine macrophage cell line J774.2 is maintained at Laboratorio de Estudios Epidemiológicos, Clínicos, Diseños Experimentales e Investigación, Facultad de Ciencias Químicas, Universidad Autónoma “Benito Juárez” de Oaxaca. Macrophages were washed and viability was assessed by the MTT colorimetric assay. In a 96-well microplate, 1 × 10^5 macrophages were added per well and a dose-response assay was performed. Compounds were evaluated using serial dilutions to determine half-maximal cytotoxic concentration (CC50) values in triplicate considering 0.2% DMSO as negative control.

[4] = Giardia duodenalis, 48 h, read-out: G. lamblia (IC50 nM), trophozoites, 48 h at 37 °C, subcultured 48 h, Probit analysis
[5] = Trichomonas vaginalis, GT3, 48 h, read-out: T. vaginalis (IC50 nM), trophozoites, 48 h at 37 °C, subcultured 48 h, Probit analysis
[6] = Entamoeba histolytica, 48 h, read-out: E. histolytica (IC50 nM), trophozoites, 48 h at 37 °C, subcultured 48 h, Probit analysis
[7] = read-out: T. vaginalis (IC50 nM), trophozoites, 48 h at 37 °C, subcultured 48 h, Probit analysis

`CC(C)COC(=O)c1ccc2c(c1)[n+]([O-])c(C(=O)c1ccccc1)c(C(F)(F)F)[n+]2[O-]` [Compound T-163] showed an IC50 (G. lamblia WB strain; [4]) of 34.5 ± 2.3 nM, an IC50 (T. vaginalis GT3 strain; [5]) of 100 ± 5.76 nM and an IC50 [1, 6] of 57.6 ± 2.3 nM. It also gave an inhibition at 100 µM [2] of 50 to 75%.

Molecule `CCCCOC(=O)c1ccc2c(c1)[n+]([O-])c(C(=O)c1cccs1)c(C(F)(F)F)[n+]2[O-]` [Compound T-149] has an IC50 (G. lamblia WB strain; [4]) of less than 30 nM, an IC50 (G. lamblia WB strain; read-out: G. lamblia (IC50 nM), trophozoites, 48 h at 37 °C, subcultured 48 h, Probit analysis) of 27.3 ± 2.27 nM and an IC50 (T. vaginalis GT3 strain; [5]) of 97.7 ± 9.09 nM. It also gave an IC50 [1, 6] of 18.2 ± 2.27 nM and an inhibition at 100 µM [2] of 50 to 75%.

With `CC(=O)c1c(C)[n+]([O-])c2ccc(C(=O)OCC(C)C)cc2[n+]1[O-]` [Compound T-155] the IC50 (T. vaginalis GT3 strain; [5]) was 192 ± 6.29 nM, the IC50 [1, 6] was 58.2 ± 1.57 nM and the CC50 [3] was 87220 ± 213 nM. It also gave an inhibition at 100 µM [2] of 50 to 75%.

For `CCCCOC(=O)c1ccc2c(c1)[n+]([O-])c(C(=O)Nc1ccc(C)cc1C)c(C)[n+]2[O-]` [Compound T-144], the IC50 (G. lamblia WB strain; [4]) was 46.1 ± 1.18 nM, the IC50 (T. vaginalis GT3 strain; [5]) was 118 ± 4.73 nM and the IC50 [1, 6] was 47.3 ± 4.73 nM.

Molecule `CCCCOC(=O)c1ccc2c(c1)[n+]([O-])c(C(=O)c1ccccc1)c(C)[n+]2[O-]` [Compound T-142] has an IC50 (G. lamblia WB strain; [4]) of 36.8 ± 0.66 nM, an IC50 (T. vaginalis GT3 strain; [5]) of less than 90 nM and an IC50 (T. vaginalis GT3 strain; [7]) of 81.5 ± 3.95 nM. The “Selectivity index, E. histolytica versus macrophages” value ([1]; CC50 J774.2 / IC50 E. histolytica) was 1918 fold, the IC50 [1, 6] was 9.2 ± 1.32 nM and the CC50 [3] was 17600 ± 2140 nM. For the same molecule, the inhibition at 100 µM [2] was 50 to 75%.

Work on `CC(C)COC(=O)c1ccc2c(c1)[n+]([O-])c(C(=O)Nc1ccccc1)c(-c1ccccc1)[n+]2[O-]` [Compound T-169] yielded an IC50 (G. lamblia WB strain; [4]) of 98.4 ± 2.19 nM, an IC50 (T. vaginalis GT3 strain; [5]) of 116 ± 5.47 nM and an IC50 [1, 6] of 43.7 ± 2.19 nM. For the same molecule, the CC50 [3] was greater than 200000 nM and the inhibition at 100 µM [2] was 50 to 75%.

In the case of `CC(C)COC(=O)c1ccc2c(c1)[n+]([O-])c(C(=O)c1cccs1)c(C(F)(F)F)[n+]2[O-]` [Compound T-164], the IC50 (G. lamblia WB strain; [4]) is reported as 107 ± 9.21 nM, the IC50 (T. vaginalis GT3 strain; [5]) is reported as 118 ± 10.5 nM and the IC50 [1, 6] is reported as 27.3 ± 5.26 nM. For the same molecule, the CC50 [3] was 43800 ± 1890 nM.

`CC(C)COC(=O)c1ccc2c(c1)[n+]([O-])c(C(=O)c1ccc3ccccc3c1)c(C(F)(F)F)[n+]2[O-]` [Compound T-166] was tested, and the IC50 (G. lamblia WB strain; [4]) was 41.3 ± 2.07 nM, the IC50 (T. vaginalis GT3 strain; [5]) was 82.6 ± 4.13 nM and the IC50 [1, 6] was 50.6 ± 5.17 nM.

With `CCCCOC(=O)c1ccc2c(c1)[n+]([O-])c(C(C)=O)c(C)[n+]2[O-]` [Compound T-137] the IC50 (G. lamblia WB strain; [4]) was 77 ± 9.43 nM, the IC50 (T. vaginalis GT3 strain; [5]) was 258 ± 6.29 nM and the IC50 [1, 6] was 83.3 ± 1.57 nM. It also gave a CC50 [3] of 58400 ± 1120 nM.

For `CCCCOC(=O)c1ccc2c(c1)[n+]([O-])c(C(=O)OCc1ccccc1)c(C)[n+]2[O-]` [Compound T-141], the IC50 (G. lamblia WB strain; [4]) was 70.7 ± 1.22 nM, the IC50 (T. vaginalis GT3 strain; [5]) was 166 ± 6.1 nM and the IC50 [1, 6] was roughly 40 nM. It also gave an IC50 ([1]; read-out: E. histolytica (IC50 nM), trophozoites, 48 h at 37 °C, subcultured 48 h, Probit analysis) of 40.2 ± 2.44 nM and a CC50 [3] greater than 200000 nM.

For `CCCCOC(=O)c1ccc2c(c1)[n+]([O-])c(C(=O)c1ccccc1)c(C(F)(F)F)[n+]2[O-]` [Compound T-148], the IC50 (G. lamblia WB strain; [4]) was 39.2 ± 3.46 nM, the IC50 (T. vaginalis GT3 strain; [5]) was less than 90 nM and the IC50 (T. vaginalis GT3 strain; [7]) was 82.9 ± 8.06 nM. It also gave an IC50 [1, 6] of 16.1 ± 3.46 nM, a CC50 [3] of 48400 ± 1650 nM and an inhibition at 100 µM [2] of 50 to 75%.

`CCCSc1ccc2nc(NC(=O)OC)[nH]c2c1` [Albendazole, reference compound] gave an IC50 (G. lamblia WB strain; [4]) of 49 ± 5.65 nM, an IC50 (T. vaginalis GT3 strain; [5]) of 1830 ± 86.7 nM and an IC50 [1, 6] of 44000 ± 2470 nM.
